Results taken from patent publication US20210369615A1, “SOLID ORAL FORMULATIONS OF AMPHOTERICIN B” (iCo Therapeutics Inc., priority 2018, published 2021).
Where “and” joins values, the source holds several entries; their conditions need not be identical. Equal entries are not always repeated.

Assay: Phase 1 single dose escalation pharmacokinetic study, Amphotericin B in human plasma
Format: in vivo
Settings: for Amphotericin B concentration: 800 mg dose
Protocol: A phase 1, randomized, double-blind, placebo-controlled, single dose escalation study was performed to evaluate the pharmacokinetic parameters after administration of a single dose of Formula 1A. 100 mg (FIG. 10A), 200 mg (FIG. 10B), 400 mg (FIG. 10C) and 800 mg (FIG. 10D) doses were investigated in this study.
For each dose, AmpB or a placebo was administered, and blood samples were obtained pre-dose, and post-dosing at 0.5 hr, 1 hr, 2 hr, 3 hr, 4 hr, 6 hr, 8 hr, 10 hr, 12 hr, 24 hr, 36 hr, 48 hr, 60 hr, 72 hr, 144 hr, and 192 hr. Pharmacokinetic analysis was performed using Phoenix™ WinNonlin® (Pharsight Corporation). Doses and sampling times were entered as provided by the sponsor. Dose normalised parameters, and descriptive statistics were calculated using Phoenix™ WinNonlin®.
Where Ct is the last measurable concentration and Kel is the elimination rate constant estimated using log-linear regression during the terminal elimination phase. • t½: Elimination half-life, determined by ln(2)/Kel • CL/f: Observed Systemic clearance, calculated as dose/AUC • Vz: Observed Volume of distribution during the terminal phase, calculated as CL/Kel

[1] = single 100 mg dose (Formula 1A), Geometric Mean, N 6
[2] = single 100 mg dose (Formula 1A), Mean, N 6
[3] = single 100 mg dose (Formula 1A), Median, N 6
[4] = single 100 mg dose (Formula 1A), individual subjects A, B, C, D, F, H
[5] = single 200 mg dose (Formula 1A), Geometric Mean, N 6
[6] = single 200 mg dose (Formula 1A), Mean, N 6
[7] = single 200 mg dose (Formula 1A), Median, N 6
[8] = single 200 mg dose (Formula 1A), individual subjects I, 3, K, M, N, P
[9] = single 400 mg dose (Formula 1A), Geometric Mean, N 6
[10] = single 400 mg dose (Formula 1A), Mean, N 6
[11] = single 400 mg dose (Formula 1A), Median, N 6
[12] = single 400 mg dose (Formula 1A), individual subjects R, S, T, U, V, W

C[C@@H]1[C@H](O)[C@@H](C)/C=C/C=C/C=C/C=C/C=C/C=C/C=C/[C@H](O[C@@H]2O[C@H](C)[C@@H](O)[C@H](N)[C@@H]2O)C[C@@H]2O[C@](O)(C[C@@H](O)C[C@@H](O)[C@H](O)CC[C@@H](O)C[C@@H](O)CC(=O)O[C@H]1C)C[C@H](O)[C@H]2C(=O)O [Amphotericin B]
Amphotericin B concentration (nominal hour 0.5, individual subjects): BQL | Amphotericin B concentration (nominal hour 1, individual subjects): 0.791 ng/mL and BQL (5×) | Amphotericin B concentration (nominal hour 2, individual subjects): 7.683 ng/mL and 8.234 ng/mL and 2.414 ng/mL and 5.164 ng/mL and 3.206 ng/mL and 4.175 ng/mL | Amphotericin B concentration (nominal hour 4, individual subjects): 16.397 ng/mL and 28.318 ng/mL and 18.814 ng/mL and 17.942 ng/mL and 23.486 ng/mL and 20.176 ng/mL | Amphotericin B concentration (nominal hour 6, individual subjects): 29.902 ng/mL and 40.067 ng/mL and 30.628 ng/mL and 24.140 ng/mL and 33.962 ng/mL and 31.375 ng/mL | Amphotericin B concentration (nominal hour 8, individual subjects): 22.535 ng/mL and 31.543 ng/mL and 30.838 ng/mL and 27.279 ng/mL and 39.722 ng/mL and 22.816 ng/mL | Amphotericin B concentration (nominal hour 10, individual subjects): 21.595 ng/mL and 29.990 ng/mL and 25.996 ng/mL and 32.914 ng/mL and 42.805 ng/mL and 22.226 ng/mL | Amphotericin B concentration (nominal hour 12, individual subjects): 21.001 ng/mL and 31.865 ng/mL and 22.810 ng/mL and 27.866 ng/mL and 40.021 ng/mL and 21.390 ng/mL | Amphotericin B concentration (nominal hour 24, individual subjects): 16.218 ng/mL and 14.674 ng/mL and 23.607 ng/mL and 14.816 ng/mL and 19.124 ng/mL and 26.064 ng/mL | Amphotericin B concentration (nominal hour 36, individual subjects): 10.661 ng/mL and 16.074 ng/mL and 13.715 ng/mL and 9.365 ng/mL and 12.504 ng/mL and 19.218 ng/mL | Amphotericin B concentration (nominal hour 48, individual subjects): 6.472 ng/mL and 12.880 ng/mL and 12.291 ng/mL and 7.395 ng/mL and 8.947 ng/mL and 13.166 ng/mL | Amphotericin B concentration (nominal hour 63, individual subjects): 6.398 ng/mL and 10.642 ng/mL and 7.859 ng/mL and 3.935 ng/mL and 6.865 ng/mL and 9.972 ng/mL | Amphotericin B concentration (nominal hour 72, individual subjects): 5.044 ng/mL and 10.165 ng/mL and 6.793 ng/mL and 2.412 ng/mL and 3.808 ng/mL and 8.297 ng/mL | Amphotericin B concentration (nominal hour 144, individual subjects): 0.539 ng/mL and 2.254 ng/mL and 1.380 ng/mL and 0.329 ng/mL and 0.518 ng/mL and 1.905 ng/mL | Amphotericin B concentration (nominal hour 192, individual subjects): BQL (3×) and 0.726 ng/mL and 0.132 ng/mL and 0.243 ng/mL | Amphotericin B concentration (pre-dose, individual subjects): BQL | % AUCexp [1]: 16.37% | AUCO-inf [1]: 1.15507 µg·h/mL | AUCO-t [1]: 0.86575 µg·h/mL | CL/F [1]: 86574.82 mL/h | Cmax [1]: 0.02945 µg/mL | Kel [1]: 0.02 h⁻¹ | Tmax [1]: 6.00 h | T½ [1]: 28.42 h | V/F [1]: 3549117.10 mL | % AUCexp [2]: 23.01% | AUCO-inf [2]: 1.32945 µg·h/mL | AUCO-t [2]: 0.91251 µg·h/mL | CL/F [2]: 96064.72 mL/h | Cmax [2]: 0.03022 µg/mL | Kel [2]: 0.03 h⁻¹ | Tmax [2]: 6.00 h | T½ [2]: 31.80 h | V/F [2]: 3656853.27 mL | % AUCexp [3]: 16.74% | AUCO-inf [3]: 1.0298 µg·h/mL | AUCO-t [3]: 0.75965 µg·h/mL | CL/F [3]: 102549.85 mL/h | Cmax [3]: 0.02802 µg/mL | Kel [3]: 0.03 h⁻¹ | Tmax [3]: 6.00 h | T½ [3]: 27.27 h | V/F [3]: 3591414.60 mL | % AUCexp [4]: 12.17% and 44.38% and 21.32% and 9.08% and 47.20% and 3.91% | AUCO-inf [4]: 0.7239 µg·h/mL and 1.36229 µg·h/mL and 1.26706 µg·h/mL and 0.78816 µg·h/mL and 3.04277 µg·h/mL and 0.79254 µg·h/mL | AUCO-t [4]: 0.63582 µg·h/mL and 0.75771 µg·h/mL and 0.99695 µg·h/mL and 0.71657 µg·h/mL and 1.60643 µg·h/mL and 0.76159 µg·h/mL | CL/F [4]: 138140.40 mL/h and 73405.78 mL/h and 78922.85 mL/h and 126877.64 mL/h and 32864.80 mL/h and 126176.85 mL/h | Cmax [4]: 0.02266 µg/mL and 0.02441 µg/mL and 0.03005 µg/mL and 0.02598 µg/mL and 0.04357 µg/mL and 0.03467 µg/mL | Kel [4]: 0.03 1/hr and 0.01 1/hr (2×) and 0.02 1/hr and 0.04 1/hr and 0.05 1/hr | Tmax [4]: 6.00 h | T½ [4]: 22.60 h and 47.37 h and 31.94 h and 19.37 h and 55.13 h and 14.42 h | V/F [4]: 4503070.74 mL and 5016960.70 mL and 3637239.70 mL and 3545589.51 mL and 2613781.85 mL and 2624477.13 mL | % AUCexp [5]: 13.76% | AUCO-inf [5]: 1.04021 µg·h/mL | AUCO-t [5]: 0.82265 µg·h/mL | CL/F [5]: 192268.01 mL/h | Cmax [5]: 0.02866 µg/mL | Kel [5]: 0.03 h⁻¹ | Tmax [5]: 6.29 h | T½ [5]: 25.39 h | V/F [5]: 7043125.41 mL | % AUCexp [6]: 19.01% | AUCO-inf [6]: 1.06659 µg·h/mL | AUCO-t [6]: 0.85621 µg·h/mL | CL/F [6]: 197223.58 mL/h | Cmax [6]: 0.0297 µg/mL | Kel [6]: 0.03 h⁻¹ | Tmax [6]: 6.33 h | T½ [6]: 29.35 h | V/F [6]: 8022007.31 mL | % AUCexp [7]: 15.83% | AUCO-inf [7]: 1.06132 µg·h/mL | AUCO-t [7]: 0.80402 µg·h/mL | CL/F [7]: 189651.36 mL/h | Cmax [7]: 0.02862 µg/mL | Kel [7]: 0.03 h⁻¹ | Tmax [7]: 6.00 h | T½ [7]: 24.59 h | V/F [7]: 7174305.73 mL | % AUCexp [8]: 51.97% and 15.07% and 6.50% and 16.58% and 4.05% and 19.85% | AUCO-inf [8]: 1.24116 µg·h/mL and 1.14601 µg·h/mL and 1.43852 µg·h/mL and 0.73708 µg·h/mL and 0.86011 µg·h/mL and 0.97664 µg·h/mL | AUCO-t [8]: 0.59614 µg·h/mL and 0.97327 µg·h/mL and 1.34494 µg·h/mL and 0.61486 µg·h/mL and 0.8253 µg·h/mL and 0.78274 µg·h/mL | CL/F [8]: 161138.94 mL/h and 174518.59 mL/h and 139032.26 mL/h and 271340.46 mL/h and 232527.11 mL/h and 204784.12 mL/h | Cmax [8]: 0.01877 µg/mL and 0.02735 µg/mL and 0.04246 µg/mL and 0.02341 µg/mL and 0.03631 µg/mL and 0.0299 µg/mL | Kel [8]: 0.01 1/hr and 0.03 1/hr (3×) and 0.05 1/hr (2×) | Tmax [8]: 6.00 h and 8.00 h | T½ [8]: 68.82 h and 24.69 h and 15.32 h and 24.50 h and 15.26 h and 27.53 h | V/F [8]: 15999011.64 mL and 6215853.68 mL and 3073693.76 mL and 9591266.45 mL and 5119460.58 mL and 8132757.78 mL | % AUCexp [9]: 25.23% | AUCO-inf [9]: 1.79936 µg·h/mL | AUCO-t [9]: 1.04559 µg·h/mL | CL/F [9]: 222300.98 mL/h | Cmax [9]: 0.02816 µg/mL | Kel [9]: 0.02 h⁻¹ | Tmax [9]: 7.11 h | T½ [9]: 42.43 h | V/F [9]: 13606337.94 mL | % AUCexp [10]: 36.21% | AUCO-inf [10]: 2.49419 µg·h/mL | AUCO-t [10]: 1.14877 µg·h/mL | CL/F [10]: 300584.11 mL/h | Cmax [10]: 0.02904 µg/mL | Kel [10]: 0.02 h⁻¹ | Tmax [10]: 7.33 h | T½ [10]: 57.04 h | V/F [10]: 15172419.27 mL | % AUCexp [11]: 33.41% | AUCO-inf [11]: 2.02933 µg·h/mL | AUCO-t [11]: 1.08921 µg·h/mL | CL/F [11]: 197696.44 mL/h | Cmax [11]: 0.02844 µg/mL | Kel [11]: 0.02 h⁻¹ | Tmax [11]: 6.00 h | T½ [11]: 39.03 h | V/F [11]: 12667205.14 mL | % AUCexp [12]: 73.99% and 4.55% and 35.27% and 11.36% and 31.55% and 60.51% | AUCO-inf [12]: 7.13899 µg·h/mL and 0.98105 µg·h/mL and 1.91871 µg·h/mL and 0.52098 µg·h/mL and 2.26543 µg·h/mL and 2.13996 µg·h/mL | AUCO-t [12]: 1.85679 µg·h/mL and 0.9364 µg·h/mL and 1.24203 µg·h/mL and 0.46179 µg·h/mL and 1.5506 µg·h/mL and 0.84503 µg·h/mL | CL/F [12]: 56030.30 mL/h and 407726.35 mL/h and 208473.83 mL/h and 767787.87 mL/h and 176567.28 mL/h and 186919.05 mL/h | Cmax [12]: 0.04112 µg/mL and 0.02638 µg/mL and 0.03049 µg/mL and 0.02186 µg/mL and 0.03426 µg/mL and 0.02015 µg/mL | Kel [12]: 0.00 1/hr and 0.05 1/hr and 0.02 1/hr (2×) and 0.03 1/hr and 0.01 1/hr | Tmax [12]: 10.00 h and 6.00 h | T½ [12]: 142.05 h and 13.66 h and 46.06 h and 24.18 h and 32.01 h and 84.28 h | V/F [12]: 11482617.37 mL and 8037364.81 mL and 13851792.91 mL and 26779550.10 mL and 8154849.30 mL and 22728341.15 mL
